Source: patent US20070027195A1, “Novel compositions comprising higher primary alcohols and nicottinic acid and process of preparation thereof” (PANACEA BIOTEC LTD., priority 2004, published 2007)
Marks after values point to notes of the source that are not given here.

System: mice fed with hypercholesterolemic diet
Experiment: Cholesterol diet-induced hypercholesterolemia in mice (serum lipid profile)
Type: in vivo, Swiss mice
Details: for HDL-C / LDL-C / Total cholesterol / Triglycerides / VLDL-C: hypercholesterolemic diet, fasting serum, mean ± S.E.M.
Experimental: In the present invention, the observed unexpected synergistic lipid lowering effect of combination of Extract-A and nicotinic acid is evidenced by the test conducted in mice. Swiss mice of either sex were procured from Central Animal House facility; Panacea Biotec Ltd., India. Animals weighing 20-25 g at the time of testing were used throughout. All animals were dosed sequentially by the oral route with Extract-A and/or nicotinic acid suspended in 0.5% of carboxy methyl cellulose (CMC). A dosing volume of 10 ml/kg was used for each sequential suspension.
The fasting serum lipid profile (TC, TGs, LDL-C, HDL-C, and VLDL) was estimated before initiation of the experiment. Total study duration was of 8 weeks. Hypercholesterolemia was induced by feeding standard chow mixed with 1% cholesterol and 0.2% cholic acid to mice (Kaur and Kulkarni, 2000). Control animals received standard mice chow for 8 weeks whereas cholesterolemic control animals received hypercholesterolemic diet for 8 weeks. The presence of hyperlipidemia in mice was confirmed by estimating serum lipid parameters after 4 weeks. Thereafter, various doses of Extract-A and/or nicotinic acid were administered for another 4 weeks during which animals were fed with high cholesterol diet. Blood samples were collected from fasted mice and analyzed for any alteration in serum lipid profile after 4 weeks of test compound(s) administration.
All the data were expressed as mean ±S.E.M. (Standard Error of Mean). Student t-test was used to compare the lipid parameters between animals fed with standard and hypercholesterolemic diet. The difference between various drug treated groups was analyzed by ANOVA followed by Dunnett's test. A value of P<0.05 was considered as statistically significant.

O=C(O)c1cccnc1 [Nicotinic acid]
HDL-C (10 mg/kg p.o. for 4 weeks): 45.82 ± 4.9^a mg/dl | LDL-C (10 mg/kg p.o. for 4 weeks): 65.5 ± 7.01^a mg/dl | Total cholesterol (10 mg/kg p.o. for 4 weeks): 118.0 ± 4.3^a mg/dl | Triglycerides (10 mg/kg p.o. for 4 weeks): 33.3 ± 2.6^a mg/dl | VLDL-C (10 mg/kg p.o. for 4 weeks): 20 ± 0.52^a mg/dl | HDL-C (20 mg/kg p.o. for 4 weeks): 42.16 ± 3.19^a mg/dl | LDL-C (20 mg/kg p.o. for 4 weeks): 61.2 ± 2.14^a mg/dl | Total cholesterol (20 mg/kg p.o. for 4 weeks): 109.5 ± 1.60^a mg/dl | Triglycerides (20 mg/kg p.o. for 4 weeks): 30.66 ± 1.58^a mg/dl | VLDL-C (20 mg/kg p.o. for 4 weeks): 6.13 ± 0.31^a mg/dl | HDL-C (40 mg/kg p.o. for 4 weeks): 51.33 ± 2.04^a mg/dl | LDL-C (40 mg/kg p.o. for 4 weeks): 44.53 ± 2.17^a mg/dl | Total cholesterol (40 mg/kg p.o. for 4 weeks): 101.6 ± 2.59^a mg/dl | Triglycerides (40 mg/kg p.o. for 4 weeks): 29.0 ± 1.46^a mg/dl | VLDL-C (40 mg/kg p.o. for 4 weeks): 5.8 ± 0.29^a mg/dl | Effect on serum lipid parameters in comparison to hypercholesterolemic control (in words) (10-40 mg/kg, p.o., dose dependently): reversed all the serum lipid parameters
